For data set [1], the system named is co-culture of Caco-2 and HT29-MTX cell lines. The data set is described as follows: Intestinal permeability assay, Caco-2/HT29-MTX co-culture, LC-MS quantification. The class given is in vitro ADME, human. The conditions noted are these: for calculated concentration, basolateral side / calculated concentration, apical side: OMWW B1 sample, mean ± SD (n = 3); for calculated concentration, apical side: apical (100% reference); for Mean Permeation Rate (±SD) at 240 min: polyphenol within OMWW B1 sample (500 µg/mL), apical to basolateral. The procedure: The instrumental setup consisted of an Agilent (Santa Clara, CA, USA) 1290 UHPLC system, which included a binary pump, a column oven maintained at 40 °C, and a temperature-controlled autosampler. This system was connected to a Sciex (Concord, ON, Canada) QTRAP 6500+ mass spectrometer operating as a triple quadrupole, equipped with an IonDrive™ Turbo V source performing electrospray ionization (ESI). […] The instrument control and data acquisition were performed using Sciex Analyst® version 1.7 software and MultiquantTM software version 3.0.3. Data analysis was carried out using Microsoft 365® Excel software (Albuquerque, NM, USA) and GraphPad (San Diego, CA, USA) Prism version 9.0.2. The mass spectrometry selected reaction monitoring (SRM) method was operated in negative ion mode. For each compound, declustering potential (DP), collision energy (CE), and collision exit potential (CxP) were optimized, and three transitions were considered for analysis. One transition was used for quantification (Q), while the other two were used as qualifiers (q). The transition list and additional operational parameters are already reported. A stock solution of each standard compound, including the internal standard, was prepared in MeOH at a concentration of 100 μg/mL and stored at −20 °C. Calibration curves were freshly prepared in pure LC-MS water. […] [34]. The experiments were performed 21 days after seeding the cells in 12 well plates. During this period, the transepithelial electrical resistance (TEER) was monitored to evaluate the cell monolayer integrity. On the last day, cell monolayers were pre-equilibrated with fresh HBSS (pH 7.4) at 37 °C for 30 min. […] At the same time, the TEER was evaluated, using an EVOM Epithelial Volthometer Instrument equipped with a chopstick electrode (World Precision Instruments, Sarasota, FL, USA). After each sampling time, the basolateral side was replaced with the same HBSS volume. Samples were conserved at −20 °C for subsequent LC/ESI-MS analysis, according to Section 2.5.

The nature of data set [2]: Hypochlorous acid scavenging assay (DHR oxidation). Type of data set: biochemical. Conditions: mean ± SD (n = 3). The procedure: The uptake capacity of hypochlorous acid (HOCl^−) was determined by monitoring the effect of OMWW extracts in the HOCl^− induced oxidation of dihydrorhodamine (DHR) to rhodamine, as reported by Gomes et al.. The fluorescence was read at 37 °C for 5 min, at wavelengths of 485 ± 20 nm and 528 ± 20 nm. The results were expressed as the inhibition, in IC50, of HOCl^− induced DHR oxidation.

Data set [3] in a line: Superoxide radical scavenging assay (NBT reduction). Type of data set: biochemical. Conditions: mean ± SD (n = 3). Here is the method: The superoxide radical (O2^−) scavenging capacity was spectrophotometrically evaluated, in accordance with Gomes et al.. Absorbance was read at 560 nm for 6 min at 37 °C in a Synergy HT Microplate Reader. The results were expressed as IC50, of the reduction in NBT to a purple-colored diformazan by the reaction with O2.

The nature of data set [4]: ABTS radical cation scavenging assay. Type of data set: biochemical. The conditions noted are these: mean ± standard error (n = 3); 5 min, rt. Here is the method:
The ABTS free radical scavenging activity of samples was evaluated by radical cation colorimetric assay in accordance with Cuffaro et al.. Briefly, the ABTS solution (7 mM of aqueous solution of ABTS with 2.45 mM potassium persulfate in a 1:1 ratio) was incubated for 12 h in the dark at rt. Then, the solution was diluted with EtOH to obtain an absorbance of 0.7 at 750 nm. A total of 10 μL of sample solution (1 mg/mL to 0.01 mg/mL) in EtOH was mixed with 180 μL of ABTS solution and the solution was incubated for 5 min at rt. The final absorbance was read at 734 nm in a Molecular Devices […] (200-1000 nm) UV/Vis spectrophotometer. The % scavenging ability was calculated as follows:% scavenging ability = ([…] = ABTS solution absorbance Abssample = ABTS solution containing the test compound absorbance. […] Trolox® was employed as positive control and was treated under the same conditions as the samples. All experiments were performed in triplicate.

A short description of data set [5]: DPPH free radical scavenging assay. Type of data set: biochemical. The conditions noted are these: mean ± standard error (n = 3); 45 min, rt. Here is the method: The antiradical activity of OMWW and EVOO samples was assessed by the DPPH free radical scavenging, as reported by Cuffaro et al.. Briefly, 100 μL of DPPH MeOH solution (40.0 μg/mL) was added to 100 μL of the sample solution in MeOH (1 mg/mL to 0.01 mg/mL), and the resulting solution was incubated for 45 min at rt and in the dark. The absorbance was read at 517 nm in a Molecular Devices […] (200-1000 nm) UV/Vis spectrophotometer. Trolox® was the positive control and was treated under the same conditions as the samples. The percent of antioxidant activity (%AA) was calculated according to the following equation:%AA = ([…] = DPPH solution absorbance Abssample = DPPH solution containing the test compound absorbance […] All experiments were performed in triplicate.
(DPPH is a stable violet radical that fades when it is reduced.)

Data set [6] has as its system co-culture of Caco-2 and HT29-MTX cell lines. More on the design: method as in PMID 37446813. The conditions noted are these: tyrosol alone, same model; cited from earlier work.

Marks after values point to notes of the source that are not given here.

As for `O=C(O)/C=C/c1ccc(O)c(O)c1` [Caffeic acid], the “calculated concentration, basolateral side” value was 0,31 ± 0,10 ng/mL in data set [1] (30 min); 0,40 ± 0,25 ng/mL in data set [1] (60 min); 1,29 ± 0,31 ng/mL in data set [1] (120 min); 2,00 ± 0,01 ng/mL in data set [1] (180 min); 1,89 ± 0,42 ng/mL in data set [1] (240 min). The “calculated concentration, apical side” value in data set [1] is recorded as 7,31 ± 0,74 ng/mL. In addition, the “Mean Permeation Rate (±SD) at 240 min” value in data set [1] (240 min) came to 26 ± 3%; in data set [1] (240 min, listed as caffeic acid) it was 26%.
For the compound `O.Oc1cc(O)c2c(c1)O[C@H](c1ccc(O)c(O)c1)[C@@H](O)C2` [Catechin], in data set [2], the “HOCl^− scavenging IC50” value is given as 0.20 ± 0.01 ^b μg/mL. Moreover, the “O2^− scavenging IC50” value in data set [3] is given as 18.01 ± 0.34 ^c,d μg/mL.
Take `O=C(O)c1cc(O)c(O)c(O)c1` [Gallic acid]: the “HOCl^− scavenging IC50” value in data set [2] is 2.60 ± 0.05 ^b μg/mL. Moreover, the “O2^− scavenging IC50” value in data set [3] is 6.34 ± 0.21 ^d μg/mL.
For `OCCc1ccc(O)c(O)c1` [Hydroxytyrosol], the “calculated concentration, basolateral side” value is recorded as 7,42 ± 5,35 ng/mL in data set [1] (30 min); 9,12 ± 5,78 ng/mL in data set [1] (60 min); 15,75 ± 5,02 ng/mL in data set [1] (120 min); 19,40 ± 2,55 ng/mL in data set [1] (180 min); 15,20 ± 1,98 ng/mL in data set [1] (240 min). Further, the “calculated concentration, apical side” value in data set [1] is listed as 45,30 ± 0,85 ng/mL. Also, the “Mean Permeation Rate (±SD) at 240 min” value in data set [1] (240 min) was found to be 34 ± 5%; in data set [1] (240 min, listed as hydroxytyrosol), 34%.
Turning to `Cc1c(C)c2c(c(C)c1O)CCC(C)(C(=O)O)O2` (stereo not drawn) [Trolox], the “ABTS IC50” value in data set [4] is given as 0.003 ± 0.0004 ^i mg/mL. For the same compound, in data set [5], the “DPPH IC50” value is recorded as 0.007 ± 0.001 ^h mg/mL.
For the compound `OCCc1ccc(O)cc1` [Tyrosol], the “permeation (release) at 240 min” value in data set [6] was 78%. Moreover, the “calculated concentration, basolateral side” value was 155,50 ± 6,36 ng/mL in data set [1] (30 min); 224,50 ± 21,92 ng/mL in data set [1] (60 min); 259,50 ± 47,38 ng/mL in data set [1] (120 min); 256,50 ± 13,44 ng/mL in data set [1] (180 min); 314,00 ± 33,94 ng/mL in data set [1] (240 min). In data set [1], the “calculated concentration, apical side” value was 587,50 ± 234,05 ng/mL. In data set [1] (240 min), the “Mean Permeation Rate (±SD) at 240 min” value stood at 59 ± 29%.

The values are drawn from PMC11507932, “Comparative Analysis on Polyphenolic Composition of Different Olive Mill Wastewater and Related Extra Virgin Olive Oil Extracts and Evaluation of Nutraceutical Properties by Cell-Based Studies” (Foods, 2024).
